Measured values: PubChem BioAssay (NCI)
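Method: 48-hour compound exposure of cells in 96-well plates, five concentrations, linear interpolation of endpoints. GI50 marks 50% less growth. TGI: total growth inhibition.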

Legend:
Experiment in all cases: growth of human tumour cells (NCI), 48 h
A498 renal = test system: A498 renal
EKVX NSCLC = test system: EKVX NSCLC
HOP-92 NSCLC = test system: HOP-92 NSCLC
HS 578T breast = test system: HS 578T breast
IGROV1 ovarian = test system: IGROV1 ovarian
M14 melanoma = test system: M14 melanoma
NCI/ADR-RES ovarian = test system: NCI/ADR-RES ovarian
SNB-75 CNS = test system: SNB-75 CNS
T-47D breast = test system: T-47D breast
UO-31 renal = test system: UO-31 renal

Row | Structure (SMILES) | TGI (A498 renal) [µM] | TGI (EKVX NSCLC) [µM] | TGI (HOP-92 NSCLC) [µM] | TGI (HS 578T breast) [µM] | TGI (IGROV1 ovarian) [µM] | TGI (M14 melanoma) [µM] | TGI (NCI/ADR-RES ovarian) [µM] | TGI (SNB-75 CNS) [µM] | TGI (T-47D breast) [µM] | TGI (UO-31 renal) [µM] | GI50 (IGROV1 ovarian) [µM] | GI50 (NCI/ADR-RES ovarian) [µM] | GI50 (A498 renal) [µM] | GI50 (EKVX NSCLC) [µM] | GI50 (HOP-92 NSCLC) [nM] | GI50 (HS 578T breast) [µM] | GI50 (SNB-75 CNS) [µM] | GI50 (T-47D breast) [µM] | GI50 (UO-31 renal) [µM]
1 | CC(=O)c1ccc2c(c1)N(CCCN1CCN(CCO)CC1)c1ccccc1C2 | 30.1 | 33.6 | 27.4 | 31.2 | 31.3 | 28.3 | 27.7 | 30.5 | 25.9 | 38.9 | – | – | – | – | – | – | – | – | –
2 | O=C(O)C(O)C(O)C(O)C(=O)CO (stereo not given) | > 100 | > 100 | > 100 | > 100 | > 100 | > 100 | > 100 | > 100 | > 100 | > 100 | – | – | – | – | – | – | – | – | –
3 | CCOC(=O)C(=O)NCCCN1CCOCC1 | > 100 | > 100 | > 100 | – | > 100 | > 100 | – | > 100 | – | > 100 | – | – | – | – | – | – | – | – | –
4 | C1=CC(=[N+]2N=C(c3ccccc3)CC2c2ccccc2)C=CC1=C1SC(c2ccccc2)(c2ccccc2)c2ccccc21 (stereo not given) | > 100 | > 100 | > 100 | > 100 | > 100 | > 100 | > 100 | – | > 100 | > 100 | – | – | – | – | – | – | – | – | –
5 | CCCCCOC(=O)c1cc2cc(CCl)ccc2oc1=O | 5.39 | 18.4 | 7.35 | > 42.8 | 27.8 | 34.8 | 53.3 | 31.2 | 13.6 | 11.1 | – | – | – | – | – | – | – | – | –
6 | Nc1cc(-c2ccc(Cl)cc2)nn1-c1nc2ccccc2nc1-c1ccccc1 | > 100 | > 100 | > 100 | > 100 | > 100 | > 100 | > 100 | 64.9 | > 100 | – | – | – | – | – | – | – | – | – | –
7 | CCCSc1ccc2[nH]c(N3C(=O)/C(=C/c4cc(OC)c(OC)c(OC)c4)N=C3c3ccccc3)cc2c1 | > 25.8 | > 37.5 | 36.6 | > 37.5 | > 37.5 | > 30.8 | > 34.2 | 33.5 | 37 | > 37.5 | – | – | – | – | – | – | – | – | –
8 | COC(CN(C=O)[C@@H](c1ccc(Cl)cc1)c1cc2ccccc2o1)OC | 33.1 | 34.4 | 33.7 | 27.6 | 30.7 | 37.1 | 41.9 | 42.7 | 33.8 | 31.2 | – | – | – | – | – | – | – | – | –
9 | O=C1/C(=C\c2ccc(F)cc2)CCOc2c1ccc1ccccc21 | > 62.1 | > 100 | 71.5 | > 84.9 | > 100 | 82.7 | 45.9 | > 66.1 | > 100 | > 100 | > 100 | – | – | – | – | – | – | – | –
10 | O=c1c2ccccc2[nH]c(=S)n1-c1ccc(N=Nc2cccc3cc(O)ccc23)cc1 | – | > 100 | > 100 | > 100 | > 100 | > 100 | > 100 | > 100 | > 100 | > 100 | – | – | – | – | – | – | – | – | –
11 | COC(=O)C[C@H](COCc1ccccc1)NC(=O)C[C@H](COCc1ccccc1)NC(=O)OC(C)(C)C | 61.9 | 45.4 | 65.5 | 67.1 | > 100 | > 100 | 72.2 | 61.2 | 98.7 | > 100 | – | – | – | – | – | – | – | – | –
12 | O=C1c2ccccc2C(C2c3ccccc3C(=O)c3cc(Br)ccc32)c2ccc(Br)cc21 (stereo not given) | > 100 | > 100 | > 100 | > 100 | > 100 | > 100 | > 100 | > 100 | > 100 | > 100 | – | – | – | – | – | – | – | – | –
13 | Nc1ccc(Oc2ccc(C34CC5CC(C3)CC(c3ccc(Oc6ccc(N)cc6)cc3)(C5)C4)cc2)cc1 | 27.3 | > 66.5 | 25.8 | > 62.8 | 15.4 | 23.5 | > 60.4 | 90.5 | 66.3 | > 53.4 | – | – | – | – | – | – | – | – | –
14 | O=C1CC2(CCC(O)(c3cccs3)C(C(=O)c3cccs3)C2)C(=O)c2ccccc2N1 (stereo not given) | > 100 | > 100 | > 100 | > 100 | > 100 | > 100 | > 100 | > 100 | > 100 | > 100 | – | – | – | – | – | – | – | – | –
15 | CC(C)(C)[Si](C)(C)OCC1OC(n2cnc3c(N)ncnc32)CC1OS(C)(=O)=O (stereo not given) | > 100 | – | 17.3 | – | > 100 | > 100 | > 100 | – | > 100 | > 100 | – | – | – | – | – | – | – | – | –
16 | C/C(N=Nc1nc2ccccc2[nH]1)=C1/C=CC=CN1O | > 100 | > 100 | > 100 | > 100 | > 100 | > 100 | > 100 | – | > 100 | > 100 | – | – | – | – | – | – | – | – | –

Row | Structure (SMILES) | TGI (A498 renal) [µM] | TGI (EKVX NSCLC) [µM] | TGI (HOP-92 NSCLC) [µM] | TGI (HS 578T breast) [µM] | TGI (IGROV1 ovarian) [µM] | TGI (M14 melanoma) [µM] | TGI (NCI/ADR-RES ovarian) [µM] | TGI (SNB-75 CNS) [µM] | TGI (T-47D breast) [µM] | TGI (UO-31 renal) [µM] | GI50 (IGROV1 ovarian) [µM] | GI50 (NCI/ADR-RES ovarian) [µM] | GI50 (A498 renal) [µM] | GI50 (EKVX NSCLC) [µM] | GI50 (HOP-92 NSCLC) [nM] | GI50 (HS 578T breast) [µM] | GI50 (SNB-75 CNS) [µM] | GI50 (T-47D breast) [µM] | GI50 (UO-31 renal) [µM]
17 | COc1ccc(C2c3cc4c(cc3OC(O)(CO)C2C(=O)O)OCO4)cc1 (stereo not given) (tested in a mixture with another compound) | > 100 | 88 | 41.7 | – | 43.5 | 29.1 | – | 78.3 | – | > 100 | – | – | – | – | – | – | – | – | –
18 | CC(C)C1OC(=O)/C=C/C=C/C=C/C=C/C=C/CC(O)C(C)C(O)CC(O)CC(O)CC(O)CC(O)CC(O)CC(O)/C=C/C1C (stereo not given) | > 100 | > 100 | > 100 | > 100 | > 100 | > 100 | > 100 | > 100 | – | > 100 | – | – | – | – | – | – | – | – | –
19 | CSCCC(NC(=O)OCc1ccccc1)P(=O)(O)c1ccccc1 (stereo not given) | – | – | > 100 | > 100 | > 100 | > 100 | > 100 | > 100 | > 100 | > 100 | – | – | – | – | – | – | – | – | –
20 | O=S(=O)(O)c1cc(N=[N+]([O-])c2cc(S(=O)(=O)O)c3ccccc3c2)cc2ccccc12 | > 100 | > 100 | > 100 | > 100 | > 100 | > 100 | > 100 | 30 | > 100 | 50.2 | – | – | – | – | – | – | – | – | –
21 | Nc1ccc(-c2nc3cc(F)ccc3s2)cc1CO | 0.0141 | > 100 | 43.5 | > 100 | 63.4 | > 100 | > 100 | 36.8 | > 100 | > 100 | – | – | – | – | – | – | – | – | –
22 | CC(=O)Oc1ccc(CO)cc1OC(C)=O | > 100 | > 100 | > 100 | – | – | > 100 | – | > 100 | – | > 100 | – | – | – | – | – | – | – | – | –
23 | COc1ccc(C(=O)N(C(=O)N2CCN(c3ccccc3)CC2)S(=O)(=O)c2ccccc2)cc1 | > 100 | 50.4 | 72.3 | 79.5 | – | 42.6 | 66.7 | 63.8 | 54 | 26.7 | – | – | – | – | – | – | – | – | –
24 | COC(OC)C1OC(CO)C(n2cc(F)c(=O)[nH]c2=O)C1O (stereo not given) | > 100 | > 100 | > 100 | > 100 | > 100 | > 100 | > 100 | > 100 | > 100 | > 100 | – | – | – | – | – | – | – | – | –
25 | Cc1cnoc1NS(=O)(=O)c1ccc(Nc2nnc(/C=C/c3c(O)ccc4ccccc34)c(=O)n2N)cc1 | – | 71.9 | > 100 | > 100 | > 100 | 75.7 | 66.9 | 77 | 82 | > 100 | – | – | – | – | – | – | – | – | –
26 | COC1CC(CC2CCC(C)C(C(C)C(=O)O)O2)OC2(OC(C)(C3CCC(C)(C4OC(C5OC(O)(CO)C(C)CC5C)CC4C)O3)CC2C)C1C (stereo not given) | 3.39 | 49.2 | 16.4 | > 35.2 | 66.9 | 5.82 | > 66.1 | 8.7 | 2.41 | 33.8 | – | 2.58 | – | – | – | – | – | – | –
27 | COC(=S)OC1CC(n2cnc3c(N)ncnc32)OC1CO[Si](C)(C)C(C)(C)C (stereo not given) | 56.9 | – | 59.3 | – | 43.8 | 43.3 | 82.6 | – | 88.8 | 40.8 | – | – | – | – | – | – | – | – | –
28 | COc1cc2c(cc1C)NC(=O)/C2=C/c1c(Cl)n(-c2ccccc2)c2ccccc12 | > 100 | > 100 | > 100 | > 100 | > 100 | 63.1 | 67.7 | > 100 | 40.4 | > 100 | – | – | – | – | – | – | – | – | –
29 | NC(=S)N1N=C(c2ccccc2O)CC1c1ccccc1 (stereo not given) | 30.1 | 70.6 | 54.6 | 72.4 | 48.6 | 24.5 | 50.6 | 52.9 | 68.5 | 53.6 | – | – | – | – | – | – | – | – | –
30 | CCCN1C(=O)CSC1=Nc1ccc2cc3ccc(N=C4SCC(=O)N4CCC)cc3nc2c1 | > 100 | > 100 | 0.334 | > 100 | – | – | > 100 | > 100 | > 100 | > 100 | – | 63.1 | > 100 | > 100 | 39.1 | 35.8 | 22.3 | 18.2 | 41.1
31 | COc1cc2c(cc1OCCCCCCCCN1C(=O)c3cccc4cccc(c34)C1=O)N=C[C@@H]1CCCN1C2=O | – | 35.7 | – | > 100 | 64.7 | > 100 | 19.4 | 10.3 | > 100 | > 100 | – | – | – | – | – | – | – | – | –
32 | N#Cc1c(N)nc2c(c1-c1ccc(Br)cc1)CSc1ccccc1-2 | > 100 | – | 50.2 | > 100 | > 100 | > 100 | > 100 | > 100 | 58.2 | > 100 | – | – | – | – | – | – | – | – | –
